In US20100285959A1, “HERBICIDAL MIXTURES” (priority 2006, published 2010):

Legend:
[1] = test system: velvetleaf (ABUTH); test: Test 1 field trial, preemergence; format: in vivo, Abutilon theophrasti
Source text: (§1) Corn seeds (hybrid ‘Pioneer 34N43’) were planted in mid spring season, 3.8 cm deep in a silt loam soil having 4.6% organic matter and a pH of 6. Plots were 10.7 m long by 1.5 m wide with rows spaced 76 cm apart. Seeds were spaced 18 cm apart within the rows. The field was managed using conventional tillage practices. […] Results are summarized in Table 1 and are the means of the three replicates. […] Colby's Equation (Colby, S. R. “Calculating Synergistic and Antagonistic Responses of Herbicide Combinations,” Weeds, 15(1), pp 20-22 (1967)) calculates the expected additive effect of herbicidal mixtures, and for two active ingredients is of the form:
(§2) Pa+b=Pa+Pb−(PaPb/100) • wherein Pa+b is the percentage effect of the mixture expected from additive contribution of the individual components, • Pa is the observed percentage effect of the first active ingredient at the same use rate as in the mixture, and • Pb is the observed percentage effect of the second active ingredient at the same use rate as in the mixture.

[2] = test system: common lambsquarters (CHEAL); test: Test 1 field trial, preemergence; format: in vivo, Chenopodium album
Source text: as §1, §2

[3] = test system: giant foxtail (SETFA); test: Test 1 field trial, preemergence; format: in vivo, Setaria faberi
Source text: as §1, §2

[4] = test system: field pennycress (THLAR); test: Test 1 field trial, preemergence; format: in vivo, Thlaspi arvense; settings: 28 DAA
Source text: as §1, §2

[5] = test system: corn (ZEAMD); test: Test 5 field trial, postemergence; format: in vivo, Zea mays ssp. indentata; settings: hybrid Pioneer 38H69, corn (Zea mays ssp. indentata), in vivo
Source text: (§3) Corn seeds (hybrid ‘Pioneer 38H69’) were planted in mid spring season, 5.1 cm deep in a silty clay loam soil having 3% organic matter and a pH of 6.5. Plots were 9.1 m long by 3.0 m wide with rows spaced 76 cm apart. The field was managed using conventional tillage practices. […] All treatments included a surfactant except glufosinate treatments, both alone and in combination. […] Results are summarized in Table 5 and are the means of the three replicates.

[6] = test system: velvetleaf (ABUTH); test: Test 5 field trial, postemergence; format: in vivo, Abutilon theophrasti
Source text: as §3

[7] = test system: corn (ZEAMD); test: Test 6 field trial, postemergence; format: in vivo, Zea mays ssp. indentata; settings: hybrid Pioneer 35Y62, corn (Zea mays ssp. indentata), in vivo
Source text: (§4) Corn seeds (hybrid ‘Pioneer 35Y62’) were planted in mid spring season, 3.8 cm deep in a silt loam soil having 4% organic matter and a pH of 5.8. Plots were 10.7 m long by 1.5 m wide with rows spaced 76 cm apart. Seeds were spaced 18 cm apart within the rows. The field was managed using conventional tillage practices. […] All treatments included a surfactant except glufosinate treatments, both alone and in combination. […] Results are summarized in Table 6 and are the means of the three replicates.

[8] = test system: redroot pigweed (AMARE); test: Test 6 field trial, postemergence; format: in vivo, Amaranthus retroflexus
Source text: as §4

[9] = test system: giant foxtail (SETFA); test: Test 6 field trial, postemergence; format: in vivo, Setaria faberi
Source text: as §4

[10] = test system: redroot pigweed (AMARE); test: Test 8 field trial, preemergence; format: in vivo, Amaranthus retroflexus; settings: 56 DAA
Source text: (§5) Corn seeds (hybrid ‘Pioneer 31G96’) were planted in mid spring season, 3.8 cm deep in a clay loam soil having 2% organic matter and a pH of 6.6. Plots were 6.1 m long by 3.0 m wide with rows spaced 76 cm apart. Seeds were spaced 15 cm apart within the rows. The field was managed using conventional tillage practices. […] A few of the weed species could not be evaluated at every timing. […] Results are the means of the three replicates.

[11] = test system: ivyleaf morningglory (IPOHE); test: Test 8 field trial, preemergence; format: in vivo, Ipomoea hederacea
Source text: as §5

[12] = test system: Pennsylvania smartweed (POLPY); test: Test 8 field trial, preemergence; format: in vivo, Polygonum pensylvanicum
Source text: as §5

[13] = test system: corn (ZEAMD); test: Test 10 field trial, preemergence; format: in vivo, Zea mays ssp. indentata; settings: hybrid Pioneer 33P65 RR, corn (Zea mays ssp. indentata), in vivo, 28 days after application
Source text: (§6) Corn seeds (hybrid ‘Pioneer 33P65 RR’) were planted in mid spring season, 2.5 cm deep in a silt loam soil. Plots were 9.1 m long by 3.0 m wide with rows spaced 76 cm apart. The field was managed using conventional tillage practices. […] Results are the means of the three replicates.

[14] = test system: common waterhemp (AMATA); test: Test 10 field trial, preemergence; format: in vivo, Amaranthus tamariscinus; settings: 28 DAA
Source text: as §6

[15] = test system: common ragweed (AMBEL); test: Test 10 field trial, preemergence; format: in vivo, Ambrosia artemisiifolia; settings: 28 DAA
Source text: as §6

[16] = test system: goosegrass (ELEIN); test: Test 11 field trial, preemergence; format: in vivo, Eleusine indica
Source text: Corn seeds (hybrid ‘Pioneer 3041’) were planted in mid spring season, 5 cm deep in a clay soil having 2.6% organic matter and a pH of 5.6. Plots were 8 m long by 1.5 m wide with rows spaced 80 cm apart. Seeds were spaced 15 cm apart within the rows. The field was managed using conventional tillage practices. […] Treatments consisted of Compound 2 or
Goosegrass was not evaluated 16 or 91 days after application.

[17] = 28 DAA, g a.i./ha: Cpd 2 50, S-Metolachlor 1870
[18] = 28 DAA, g a.i./ha: Cpd 2 100, Atrazine 1680, S-Metolachlor 1870
[19] = 28 DAA, g a.i./ha: Cpd 2 150, S-Metolachlor 1870
[20] = 56 DAA, g a.i./ha: Cpd 2 50, S-Metolachlor 1870
[21] = 56 DAA, g a.i./ha: Cpd 2 100, Atrazine 1680, S-Metolachlor 1870
[22] = 56 DAA, g a.i./ha: Cpd 2 150, S-Metolachlor 1870
[23] = g a.i./ha: Cpd 2 50, S-Metolachlor 1870
[24] = g a.i./ha: Cpd 2 100, Atrazine 1680, S-Metolachlor 1870
[25] = g a.i./ha: Cpd 2 150, S-Metolachlor 1870
[26] = 29 DAA, g a.i./ha: Cpd 2 50, S-Metolachlor 1870
[27] = 29 DAA, g a.i./ha: Cpd 2 100, Atrazine 1680, S-Metolachlor 1870
[28] = 29 DAA, g a.i./ha: Cpd 2 150, S-Metolachlor 1870

With COC(=O)c1nc(C2CC2)nc(N)c1Cl [Compound 2, methyl 6-amino-5-chloro-2-cyclopropyl-4-pyrimidinecarboxylate] the “ABUTH Obs” value [1, 17] was 0, the “ABUTH Obs” value [1, 18] was 0 and the “ABUTH Obs” value [1, 19] was 0. For the same compound, the “ABUTH Obs” value [1, 20] was 0, the “ABUTH Obs” value [1, 21] was 0 and the “ABUTH Obs” value [1, 22] was 10. The “CHEAL Obs” value [2, 17] was 0, the “CHEAL Obs” value [2, 18] was 7 and the “CHEAL Obs” value [2, 19] was 7. The “CHEAL Obs” value [2, 20] was 7, the “CHEAL Obs” value [2, 21] was 55 and the “CHEAL Obs” value [2, 22] was 100. The “SETFA Obs” value [3, 17] was 0, the “SETFA Obs” value [3, 18] was 0 and the “SETFA Obs” value [3, 19] was 0. For the same compound, the “SETFA Obs” value [3, 20] was 0, the “SETFA Obs” value [3, 21] was 0 and the “SETFA Obs” value [3, 22] was 0. The “THLAR Obs” value [4, 23] was 0, the “THLAR Obs” value [4, 24] was 0 and the “THLAR Obs” value [4, 25] was 7. For the same compound, the “ZEAMD Obs” value ([5]; 16 days after application) was 0%, the “ZEAMD Obs” value ([5]; 31 days after application) was 0% and the “ABUTH Obs” value ([6]; 16 DAA, Cpd 2 30 g a.i./ha alone or with glufosinate 470 or glyphosate 1120) was 76%. The “ABUTH Obs” value ([6]; 16 DAA, Cpd 2 60 g a.i./ha alone or with atrazine 1120, glufosinate 470 or glyphosate 1120) was 81%, the “ABUTH Obs” value ([6]; 31 DAA, Cpd 2 30 g a.i./ha alone or with glufosinate 470 or glyphosate 1120) was 77% and the “ABUTH Obs” value ([6]; 31 DAA, Cpd 2 60 g a.i./ha alone or with atrazine 1120, glufosinate 470 or glyphosate 1120) was 82%. For the same compound, the “ZEAMD Obs” value ([7]; 14 days after application) was 0%, the “ZEAMD Obs” value ([7]; 28 days after application) was 0% and the “AMARE Obs” value ([8]; 14 DAA, 30 g a.i./ha) was 100%. The “AMARE Obs” value ([8]; 14 DAA, 60 g a.i./ha) was 98%, the “AMARE Obs” value ([8]; 28 DAA, 30 g a.i./ha) was 100% and the “AMARE Obs” value ([8]; 28 DAA, 60 g a.i./ha) was 98%. The “SETFA Obs” value ([9]; 14 DAA, 30 g a.i./ha) was 0%, the “SETFA Obs” value ([9]; 14 DAA, 60 g a.i./ha) was 0% and the “SETFA Obs” value ([9]; 28 DAA, 30 g a.i./ha) was 0%. The “SETFA Obs” value ([9]; 28 DAA, 60 g a.i./ha) was 0%, the “AMARE Obs” value [10, 23] was 45% and the “AMARE Obs” value [10, 24] was 100%. For the same compound, the “AMARE Obs” value [10, 25] was 100%, the “IPOHE Obs” value ([11]; 19 DAA, g a.i./ha: Cpd 2 50, S-Metolachlor 1870) was 58% and the “IPOHE Obs” value ([11]; 19 DAA, g a.i./ha: Cpd 2 100, Atrazine 1680, S-Metolachlor 1870) was 78%. The “IPOHE Obs” value ([11]; 19 DAA, g a.i./ha: Cpd 2 150, S-Metolachlor 1870) was 83%, the “IPOHE Obs” value [11, 26] was 72% and the “IPOHE Obs” value [11, 27] was 97%. For the same compound, the “IPOHE Obs” value [11, 28] was 96%, the “IPOHE Obs” value [11, 20] was 82% and the “IPOHE Obs” value [11, 21] was 100%. For the same compound, the “IPOHE Obs” value [11, 22] was 100%, the “POLPY Obs” value ([12]; 19 DAA, g a.i./ha: Cpd 2 50) was 28% and the “POLPY Obs” value ([12]; 19 DAA, g a.i./ha: Cpd 2 100) was 60%. The “POLPY Obs” value ([12]; 19 DAA, g a.i./ha: Cpd 2 150) was 65%, the “POLPY Obs” value [12, 26] was 30% and the “POLPY Obs” value [12, 27] was 50%. For the same compound, the “POLPY Obs” value [12, 28] was 70%, the “POLPY Obs” value ([12]; 56 DAA, g a.i./ha: Cpd 2 50) was 55% and the “POLPY Obs” value ([12]; 56 DAA, g a.i./ha: Cpd 2 100, Atrazine 1680) was 75%. The “POLPY Obs” value ([12]; 56 DAA, g a.i./ha: Cpd 2 150) was 95%, the “ZEAMD Obs” value [13] was 0% and the “AMATA Obs” value [14, 23] was 20%. For the same compound, the “AMATA Obs” value [14, 24] was 10%, the “AMATA Obs” value [14, 25] was 23% and the “AMBEL Obs” value [15, 23] was 5%. The “AMBEL Obs” value [15, 24] was 5%, the “AMBEL Obs” value [15, 25] was 20% and the “ELEIN Obs” value ([16]; 30 DAA, Cpd 2/Cpd 1 at 62 g a.i./ha, alone or + atrazine 1500 or metolachlor 2500) was 0. For the same compound, the “ELEIN Obs” value ([16]; 30 DAA, Cpd 2/Cpd 1 at 125 g a.i./ha, alone or + atrazine 1500 or metolachlor 2500) was 20, the “ELEIN Obs” value ([16]; 44 DAA, Cpd 2/Cpd 1 at 62 g a.i./ha, alone or + atrazine 1500 or metolachlor 2500) was 0 and the “ELEIN Obs” value ([16]; 44 DAA, Cpd 2/Cpd 1 at 125 g a.i./ha, alone or + atrazine 1500 or metolachlor 2500) was 0. For the same compound, the “ELEIN Obs” value ([16]; 62 DAA, 62 g a.i./ha, scale 0 to 100) was 0 and the “ELEIN Obs” value ([16]; 62 DAA, 125 g a.i./ha, scale 0 to 100) was 0.
